# Measurements as given in patent US20260357306A1, “ONE-POT FERMENTATIVE PRODUCTION OF GLYCOLATE OR OTHER HYDROXYCARBOXYLIC ACIDS” (PHYCUS BIOTECHNOLOGIES INC., priority 2023, published 2026).
# How the values were obtained:
# Type in all cases: biochemical
# [1] = target: T1, Gluconobacter oxydans alcohol dehydrogenase goxADH (Gox0313), SEQ ID NO: 206 (Gluconobacter oxydans, UniProt Q5FU50); assay: Alcohol dehydrogenase (EG oxidation) Michaelis-Menten kinetics, goxADH; settings: role: substrate; relative to goxADH
# T1 sequence (Q5FU50 1-343): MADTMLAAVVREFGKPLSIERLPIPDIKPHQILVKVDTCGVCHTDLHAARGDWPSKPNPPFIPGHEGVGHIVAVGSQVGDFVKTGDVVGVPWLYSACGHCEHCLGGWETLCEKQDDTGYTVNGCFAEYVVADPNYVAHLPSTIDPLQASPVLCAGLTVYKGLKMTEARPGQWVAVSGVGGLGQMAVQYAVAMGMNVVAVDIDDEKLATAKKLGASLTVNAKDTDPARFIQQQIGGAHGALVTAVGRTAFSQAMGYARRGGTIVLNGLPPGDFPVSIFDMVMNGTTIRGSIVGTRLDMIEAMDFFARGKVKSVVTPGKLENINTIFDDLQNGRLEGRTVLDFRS
# From the text: (§1) Enzyme expression and purification: The enzymes of interest were genetically engineered in the E. coli BL21 (DE3) strain on a high copy plasmid under control of the T7 promoter. The enzymes were tagged with a hexahistidine (His-tag) sequence to facilitate for purification. Post-expression, the His-tagged enzymes were selectively bound to a nickel-charged immobilized metal affinity chromatography (IMAC) resin, exploiting the high affinity between histidine residues and nickel ions. Upon washing away non-specifically bound proteins, the His-tagged enzymes were eluted with an imidazole-containing buffer and subsequently used for enzymatic assays.
# (§2) Enzyme assays: Standard enzyme characterization protocols were performed to determine the activities of the enzymes. Dehydrogenase activity against the substrates was determined using a continuous assay following the increase in absorbance at 340 nm ε340 (NADH)=6.22 mM^−1. cm^−1, and ε340 (NADPH)=6.2 mM^−1·cm^−1]. […]
# (§3) The candidate alcohol dehydrogenase enzymes were next characterized for their enzymatic activity. […] Reactions were initiated by the addition of the purified enzyme and enzymatic activity was measured by monitoring the formation of the product (glycolaldehyde) over time as described in Example 8.1. […]
# [2] = target: Mycobacterium marinum alcohol dehydrogenase mmaADH, SEQ ID NO: 215 (Mycobacterium marinum, UniProt B2HH60); assay: Alcohol dehydrogenase (EG oxidation) Michaelis-Menten kinetics, mmaADH; settings: role: substrate; relative to goxADH
# From the text: as §1, §2, §3
# [3] = target: Moraxella sp. (strain TAE123) alcohol dehydrogenase mtaADH, SEQ ID NO: 209 (Moraxella sp. TAE123, UniProt Q8GIX7); assay: Alcohol dehydrogenase (EG oxidation) Michaelis-Menten kinetics, mtaADH; settings: role: substrate; relative to goxADH
# From the text: as §1, §2, §3
# [4] = target: T2, Gluconobacter morbifer alcohol dehydrogenase gmoADH, SEQ ID NO: 207 (Gluconobacter morbifer, UniProt G6XLF0); assay: Alcohol dehydrogenase (EG oxidation) Michaelis-Menten kinetics, gmoADH; settings: role: substrate
# T2 sequence (G6XLF0 1-343): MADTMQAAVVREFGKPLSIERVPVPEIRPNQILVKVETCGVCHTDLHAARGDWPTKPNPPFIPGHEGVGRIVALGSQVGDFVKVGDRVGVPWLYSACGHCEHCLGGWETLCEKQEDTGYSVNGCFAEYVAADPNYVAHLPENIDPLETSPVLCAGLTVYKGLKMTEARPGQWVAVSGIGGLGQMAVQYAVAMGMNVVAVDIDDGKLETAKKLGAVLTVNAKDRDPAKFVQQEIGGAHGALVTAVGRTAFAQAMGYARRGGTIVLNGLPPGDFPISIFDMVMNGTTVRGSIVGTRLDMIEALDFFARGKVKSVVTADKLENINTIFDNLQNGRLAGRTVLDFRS
# From the text: as §1, §2, §3
# [5] = target: T3, Gluconobacter diazotrophicus alcohol dehydrogenase gdiADH, SEQ ID NO: 208 (Gluconacetobacter diazotrophicus, UniProt A9HNA5); assay: Alcohol dehydrogenase (EG oxidation) Michaelis-Menten kinetics, gdiADH; settings: role: substrate
# T3 sequence (A9HNA5 1-354): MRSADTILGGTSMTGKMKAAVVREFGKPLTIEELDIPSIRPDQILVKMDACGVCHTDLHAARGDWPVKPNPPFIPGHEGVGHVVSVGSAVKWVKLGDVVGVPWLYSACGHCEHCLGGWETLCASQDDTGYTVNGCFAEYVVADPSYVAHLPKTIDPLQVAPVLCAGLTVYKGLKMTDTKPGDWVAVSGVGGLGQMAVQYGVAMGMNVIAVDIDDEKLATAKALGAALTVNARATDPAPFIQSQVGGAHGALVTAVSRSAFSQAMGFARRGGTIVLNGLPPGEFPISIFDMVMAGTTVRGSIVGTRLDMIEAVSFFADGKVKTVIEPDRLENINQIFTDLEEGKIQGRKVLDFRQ
# From the text: as §1, §2, §3
# Chain of Moraxella sp. (strain TAE123) alcohol dehydrogenase mtaADH, SEQ ID NO: 209 (Q8GIX7 whole entry): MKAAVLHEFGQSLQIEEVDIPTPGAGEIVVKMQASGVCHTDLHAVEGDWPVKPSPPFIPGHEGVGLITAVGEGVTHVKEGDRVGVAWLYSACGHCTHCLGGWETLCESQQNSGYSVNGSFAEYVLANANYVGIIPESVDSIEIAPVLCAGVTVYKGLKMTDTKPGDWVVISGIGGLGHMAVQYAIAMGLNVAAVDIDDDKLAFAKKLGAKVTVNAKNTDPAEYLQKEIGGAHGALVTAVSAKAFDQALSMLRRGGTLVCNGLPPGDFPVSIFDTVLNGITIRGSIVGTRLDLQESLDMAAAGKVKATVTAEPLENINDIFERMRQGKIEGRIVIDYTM
# Chain of Mycobacterium marinum alcohol dehydrogenase mmaADH, SEQ ID NO: 215 (B2HH60 entry or part of it): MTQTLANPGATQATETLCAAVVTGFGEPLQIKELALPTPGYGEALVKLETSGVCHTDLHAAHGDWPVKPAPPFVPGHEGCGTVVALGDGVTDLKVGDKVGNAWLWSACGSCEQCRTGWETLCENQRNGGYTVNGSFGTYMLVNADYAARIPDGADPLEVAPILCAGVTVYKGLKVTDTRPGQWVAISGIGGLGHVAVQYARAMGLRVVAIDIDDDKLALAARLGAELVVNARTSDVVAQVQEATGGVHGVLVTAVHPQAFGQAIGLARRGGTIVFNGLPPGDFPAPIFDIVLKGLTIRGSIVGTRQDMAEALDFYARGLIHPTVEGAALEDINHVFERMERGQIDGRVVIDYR
compound,measurement,setting,value
OCCO [ethylene glycol],Relative Vmax,[1],1.0
same,Relative Vmax,[2],1.1
same,Relative Vmax,[3],1.6
same,Relative Vmax,[4]; relative to goxADH,2.5
same,"maximum catalytic rate (EG turnover rate), fold higher than goxADH",[4]; versus goxADH,2.5 fold
same,Relative Vmax,[5]; relative to goxADH,3.8
same,"maximum catalytic rate (EG turnover rate), fold higher than goxADH",[5]; versus goxADH,3.8 fold
